According to patent publication US9309261B2, “Spirooxindole derivative and process for producing the same” (OKINAWA INSTITUTE OF SCIENCE AND TECHNOLOGY SCHOOL …, priority 2012, dated 2016):

Key:
[1] = Cytotoxicity: K562 cell growth inhibition (Cell Counting Kit-8, WST-8); type: cell-based; conditions: human, K562 cells
Method: K562 cells (American Type Culture Collection) were cultured in a culture medium containing 10% (v/v) fetal calf serum (FCS) (manufactures by Sigma) to logarithmic phase. The cells were seeded in 96-well microtiter plate at a density of 5000 cells/well in 100 μL cell culture medium and incubated at 37° C. and 5% CO2 in a humidified incubator overnight. The test compounds of various concentrations were added in a well at 10 fold concentration in 1/10 volume of medium without FCS. After 6-48 hrs incubation at 37° C. in the CO2 incubator, 10 μL solution of the viable cell counting reagent, Cell counting Kit-8 (5 mmol/L WST-8, 0.2 mmol/L 1-Methoxy PMS, 150 mmol/L NaCl) (manufactured by Dojindo) was added to each well, and reacted for 1 to 4 hours in the CO2 incubator. After the incubation, an absorbance of formazan, generated by reduction of WST-8 was determined at 450 nm using a microplate reader.
The assay readout is correlated with the viable cell numbers. Small values correspond to high inhibition and larger values to low inhibition of the cell growth. To determine IC50 values (i.e. the concentration inhibiting the cell growth by 50%) of the compound of formula I, several assays were made with a range of concentrations chosen empirically to give low, high and intermediate inhibition of the growth and determined using the curve fitting software.
IC50 values can be converted logarithmically to pIC50 values (−log IC50), in which higher values indicate exponentially greater potency. The IC50 value is not an absolute value but depends on experimental conditions e.g. concentrations employed.

Hexokinase-II (HK-II) = biological target: T1, Hexokinase-II (HK-II) (Homo sapiens, UniProt P52789); assay: Hexokinase 2 inhibition (Transcreener ADP2 assay); type: biochemical; conditions: read-out: HK-II Inhibition ADP-FP (% inhibition at 20 μM)
T1 sequence (P52789 1-917): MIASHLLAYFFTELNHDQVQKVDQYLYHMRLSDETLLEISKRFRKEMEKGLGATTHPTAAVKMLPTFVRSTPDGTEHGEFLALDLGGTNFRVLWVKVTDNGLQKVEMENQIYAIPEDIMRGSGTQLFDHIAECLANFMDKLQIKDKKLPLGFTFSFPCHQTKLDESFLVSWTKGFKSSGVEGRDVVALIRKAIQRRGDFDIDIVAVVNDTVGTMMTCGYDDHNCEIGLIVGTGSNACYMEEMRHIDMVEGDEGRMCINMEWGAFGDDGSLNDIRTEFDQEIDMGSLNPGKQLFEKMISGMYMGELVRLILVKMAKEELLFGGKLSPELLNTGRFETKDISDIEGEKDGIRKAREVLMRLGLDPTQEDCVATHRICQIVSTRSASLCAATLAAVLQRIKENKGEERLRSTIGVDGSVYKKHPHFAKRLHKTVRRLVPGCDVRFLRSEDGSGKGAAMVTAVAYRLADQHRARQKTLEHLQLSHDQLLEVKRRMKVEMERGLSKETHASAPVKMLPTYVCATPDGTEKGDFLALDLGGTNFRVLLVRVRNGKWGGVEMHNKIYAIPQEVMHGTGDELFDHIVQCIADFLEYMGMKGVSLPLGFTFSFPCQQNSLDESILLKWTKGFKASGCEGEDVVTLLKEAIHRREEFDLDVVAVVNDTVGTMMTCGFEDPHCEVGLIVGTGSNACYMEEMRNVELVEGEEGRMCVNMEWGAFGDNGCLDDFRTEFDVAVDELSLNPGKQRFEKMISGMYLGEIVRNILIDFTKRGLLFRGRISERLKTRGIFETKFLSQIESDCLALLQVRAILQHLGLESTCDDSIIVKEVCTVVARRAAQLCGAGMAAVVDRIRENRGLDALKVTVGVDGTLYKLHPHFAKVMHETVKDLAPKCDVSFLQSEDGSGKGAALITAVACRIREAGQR
Excerpt: It is well known that tumor cells mainly rely on glycolysis for energy generation and intermediary metabolism, a phenomenon known as the Warburg effect. Hexokinase-II (HK-II), a key enzyme of glycolysis, catalyzes the first step in the conversion of glucose to glucose-6-phosphate. HK-II is highly expressed in many types of tumors and its expression is correlated with glucose uptake, tumor aggressiveness, and poor survival prognosis. Inhibition of HK-II activity attenuates tumor cell growth and induces apoptosis.
The test compounds were added to a typical reaction mixture of HK-II, and the produced ADP concentrations were determined using Transcreener® ADP^2 FI Assay (BellBrook Labs, Madison, Wis., USA).

[2] = system: tumor cells in which both WNT and KRas signaling pathways are activated; assay: Selective lethality to tumor cells with activated WNT and KRas signaling; type: cell-based

Row | Structure (SMILES) | melting point [°C] | IC50 ([1]; sample with no ee given) [µM] | activity selectively lethal to tumor cells in which both WNT and KRas signaling pathways are activated [2] | other results
1 | CCC[C@@H]1C[C@@H](O)C[C@@]2(O1)C(=O)Nc1ccccc12 [Compound 5, (2′S,4′R,6′R)-4′-hydroxy-6′-propyl-3′,4′,5′,6′-tetrahydrospiro[indoline-3,2′-pyran]-2-one] | 169 to 171 | > 245 | – | IC50 ([1]; sample of 92% ee): > 245 µM
2 | CCC[C@@H]1C[C@@H](NCc2ccccc2)C[C@@]2(O1)C(=O)Nc1ccccc12 [Compound 6, (2′S,4′R,6′R)-4′-(benzylamino)-6-propyl-3′,4′,5′,6-tetrahydrospiro[indoline-3,2′-pyran]-2-one] | – | – | – | inhibition at 20 µM (Hexokinase-II (HK-II)): 37.7%
3 | CCC[C@@H]1CC(=O)C[C@@]2(O1)C(=O)Nc1cccc(Br)c12 [Compound 3ac, (2′S,6′R)-4-bromo-6′-propyl-5′,6-dihydrospiro[indoline-3,2′-pyran]-2,4′(3′H)-dione] | – | – | selectively lethal | IC50 ([1]; sample of 82% ee): 16 µM
4 | O=C1C[C@H](c2ccccc2)O[C@@]2(C1)C(=O)Nc1ccccc12 [Compound 3ja, (2′R,6′R)-6′-phenyl-5′,6′-dihydrospiro[indoline-3,2′-pyran]-2,4′(3′H)-dione] | – | – | selectively lethal | inhibition at 20 µM (Hexokinase-II (HK-II)): 33.8%
5 | C=CC[C@@]1(O)C[C@@H](CCC)O[C@]2(C1)C(=O)Nc1ccccc12 [Compound 7, (2′S,4′R,6′R)-4′-allyl-4′-hydroxy-6-propyl-3′,4′,5′,6-tetrahydrospiro[indoline-3,2′-pyran]-2-one] | 189 to 191 | > 212 | – | IC50 ([1]; sample of 87% ee): > 212 µM
6 | CCC[C@@H]1CC(=O)C[C@@]2(O1)C(=O)Nc1ccc(Br)cc12 [Compound 3ae, (2′S,6′R)-5-bromo-6′-propyl-5′,6′-dihydrospiro[indoline-3,2′-pyran]-2,4′(3′H)-dione] | – | 20 | selectively lethal | –
7 | CCC[C@@H]1CC(=O)C[C@@]2(O1)C(=O)Nc1cc(Cl)ccc12 [Compound 3af, (2′S,6′R)-6-chloro-6′-propyl-5′,6′-dihydrospiro[indoline-3,2′-pyran]-2,4′(3′H)-dione] | – | 21 | selectively lethal | –
8 | CCC[C@@H]1CC(=O)C[C@@]2(O1)C(=O)Nc1cccc(Cl)c12 [Compound 3ab, (2′S,6′R)-4-chloro-6′-propyl-5′,6′-dihydrospiro[indoline-3,2′-pyran]-2,4′(3′H)-dione] | – | 15 | selectively lethal | –

Further lines, with some results ahead:

Row | melting point [°C] | Structure (SMILES) | IC50 ([1]; sample with no ee given) [µM] | activity selectively lethal to tumor cells in which both WNT and KRas signaling pathways are activated [2] | other results
9 | 199 to 201 | O=C1C[C@@H](CCN2C(=O)c3ccccc3C2=O)O[C@]2(C1)C(=O)Nc1ccccc12 [Compound 3ga, (2′S,6′R)-6′-(2-(1,3-dioxoisoindolin-2-yl)ethyl)-5′,6′-dihydrospiro[indoline-3,2′-pyran]-2,4′(3′H)-dione] | – | – | IC50 ([1]; sample of 91% ee): 113 µM
10 | 118 to 120 | CCC[C@@H]1CC(=O)C[C@@]2(O1)C(=O)Nc1ccccc12 [Compound 3aa, (2′S,6′R)-6′-Propyl-5′,6′-dihydrospiro[indoline-3,2′-pyran)-2,4′(3′H)-dione] | 125 | – | IC50 ([1]; sample of 99% ee): 130 µM
11 | 197 to 199 | CCC[C@@H]1C/C(=N/NS(=O)(=O)c2ccc(C)cc2)C[C@@]2(O1)C(=O)Nc1ccccc12 (stereo in doubt) | – | – | –
